Laboratory results as given in ChEMBL document CHEMBL3286117, “Synthesis and pharmacological evaluation of analogues of benzyl quinolone carboxylic acid (BQCA) designed to bind irreversibly to an allosteric site of the M ₁ muscarinic acetylcholine receptor” (J Med Chem, 2014).
Activity calls are given as the source filed them. The rule behind the calls is not given here.

Columns and labels:
[1] = biological target: T1, Muscarinic acetylcholine receptor M1 (Homo sapiens, UniProt P11229); test: Activation of human M1 mAChR expressed in FlpIn-CHO cells assessed as […] ERK1/2 phosphorylation incubated for 5 mins by Alphascreen assay; type: cell-based
T1 sequence (P11229 whole entry): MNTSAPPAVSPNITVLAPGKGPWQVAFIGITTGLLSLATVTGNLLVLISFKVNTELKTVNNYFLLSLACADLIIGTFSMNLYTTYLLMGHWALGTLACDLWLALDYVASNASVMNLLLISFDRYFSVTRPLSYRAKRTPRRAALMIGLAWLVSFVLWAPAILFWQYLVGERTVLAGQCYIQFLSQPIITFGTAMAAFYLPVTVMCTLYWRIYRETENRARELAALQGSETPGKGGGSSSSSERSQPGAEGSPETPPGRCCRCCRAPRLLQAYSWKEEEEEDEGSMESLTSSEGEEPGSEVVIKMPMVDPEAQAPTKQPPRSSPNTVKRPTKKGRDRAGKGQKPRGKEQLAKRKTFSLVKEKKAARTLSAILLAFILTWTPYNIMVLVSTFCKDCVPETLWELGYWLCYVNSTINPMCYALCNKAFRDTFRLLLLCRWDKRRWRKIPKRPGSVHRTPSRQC

[2] = biological target: T2, Muscarinic acetylcholine receptor M1 (Homo sapiens) (UniProt P11229); test: Displacement of [3H]NMS from human M1 mAChR expressed in FlpIn-CHO cells after 4 hrs by microplate counting analysis; type: cell-based
T2 sequence (whole entry): T1 sequence (P11229 whole entry)

[3] = biological target: T2, Muscarinic acetylcholine receptor M1 (Homo sapiens); test: Irreversible binding to human M1 mAChR expressed in FlpIn-CHO cells assessed as receptor alkylation incubated for 30 mins prior to [3H]NMS addition measured 4 hrs after compound washout by whole cell radioligand displacement analysis relative to vehicle-treated control; type: cell-based
[4] = biological target: T2, Muscarinic acetylcholine receptor M1 (Homo sapiens); test: Irreversible binding to human M1 mAChR expressed in FlpIn-CHO cell membrane assessed as receptor alkylation incubated for 30 mins prior to [3H]NMS addition measured after 4 hrs by radioligand displacement analysis (reference value: 100%); type: cell membranes

O=C(O)c1cn(Cc2ccc(N3C(=O)C=CC3=O)cc2)c2ccccc2c1=O
EC50 [1]: 417 nM
pKb [2]: 5.09

O=C(CBr)Nc1ccc(Cn2cc(C(=O)O)c(=O)c3ccccc32)cc1
EC50 [1]: 1580 nM
pKb [2]: 4.72

O=C(O)c1cn(Cc2ccc(N=C=S)cc2)c2ccccc2c1=O
EC50 [1]: 389 nM
Activity [3]: inactive
Bmax [4]: 50%
pKb [2]: 5.22

COc1ccc(Cn2cc(C(=O)O)c(=O)c3ccccc32)cc1
Activity [3]: inactive
Bmax [4]: 90.8%

O=C(O)c1cn(Cc2ccc(S(=O)(=O)F)cc2)c2ccccc2c1=O
EC50 [1]: 316 nM
pKb [2]: 3.97
